Where two headings read alike, the source gives them in different places. Non-standard residues stand in square brackets, D forms with d. Residues, ends and D or L forms follow the SMILES beside them. Ala(4-thiazolyl) = N[C@@H](Cc1cscn1)C(=O)O; 1Nal = N[C@@H](Cc1cccc2ccccc12)C(=O)O; Phe(2-F) = N[C@@H](Cc1ccccc1F)C(=O)O; Nle = CCCC[C@H](N)C(=O)O
Target: T1, human glucagon receptor (hGLUC R) (Homo sapiens, UniProt P47871)
T1 construct: expressed in transfected cells; host or cells: HEK-293
Test: cAMP response (HTRF) of HEK-293 cells stably expressing human glucagon receptor
Type: cell-based
Experimental: cAMP content of cells was determined using a kit from Cisbio Corp. (cat. no. 62AM4PEC) based on HTRF (Homogenous Time Resolved Fluorescence). For preparation, cells were split into T175 culture flasks and grown overnight to near confluency in medium (DMEM/10% FBS). Medium was then removed and cells washed with PBS lacking calcium and magnesium, followed by proteinase treatment with accutase (Sigma-Aldrich cat. no. A6964). Detached cells were washed and resuspended in assay buffer (1×HBSS; 20 mM HEPES, 0.1% BSA, 2 mM IBMX) and cellular density determined. They were then diluted to 400000 cells/ml and 25 μl-aliquots dispensed into the wells of 96-well plates. For measurement, 25 μl of test compound in assay buffer was added to the wells, followed by incubation for 30 minutes at room temperature.

[1] = Table 4, read-out: EC50 hGLUC R
[2] = Table 5, Tza vs. His in position 1, read-out: EC50 hGlucagon-R

T1 sequence (P47871 26-477): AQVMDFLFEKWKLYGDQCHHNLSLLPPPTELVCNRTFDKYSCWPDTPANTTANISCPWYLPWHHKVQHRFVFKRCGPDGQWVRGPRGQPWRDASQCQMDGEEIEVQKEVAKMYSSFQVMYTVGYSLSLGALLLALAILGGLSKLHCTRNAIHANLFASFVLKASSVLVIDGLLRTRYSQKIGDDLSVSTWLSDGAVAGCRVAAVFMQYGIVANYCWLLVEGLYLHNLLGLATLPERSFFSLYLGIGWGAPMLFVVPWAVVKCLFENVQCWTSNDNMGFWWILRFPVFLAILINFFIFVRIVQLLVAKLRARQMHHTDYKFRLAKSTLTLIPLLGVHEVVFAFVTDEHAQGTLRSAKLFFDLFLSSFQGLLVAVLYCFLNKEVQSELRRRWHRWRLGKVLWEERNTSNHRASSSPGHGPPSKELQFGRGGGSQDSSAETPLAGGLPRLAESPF

Row | Compound | EC50 [1] [pM] | EC50 [2] [pM]
1 | CCCC[C@H](NC(=O)[C@H](CCC(N)=O)NC(=O)[C@H](CCCCN)NC(=O)[C@H](CO)NC(=O)[C@H](Cc1ccccc1)NC(=O)[C@H](CC(=O)O)NC(=O)[C@H](CO)NC(=O)[C@@H](NC(=O)[C@H](Cc1ccccc1)NC(=O)[C@@H](NC(=O)CNC(=O)[C@H](CCC(N)=O)NC(=O)[C@H](CO)NC(=O)[C@@H](N)Cc1cscn1)[C@@H](C)O)[C@@H](C)O)C(=O)N[C@@H](CCC(=O)O)C(=O)N[C@@H](CO)C(=O)N[C@@H](CCCNC(=N)N)C(=O)N[C@@H](CCCNC(=N)N)C(=O)N[C@@H](C)C(=O)N[C@@H](CCC(N)=O)C(=O)N[C@@H](CC(=O)O)C(=O)N[C@@H](Cc1ccccc1)C(=O)N[C@H](C(=O)N[C@@H](CCC(=O)O)C(=O)N[C@@H](Cc1c[nH]c2ccccc12)C(=O)N[C@@H](CC(C)C)C(=O)N[C@@H](CC(C)C)C(=O)N[C@@H](C)C(=O)N[C@H](C(=O)NCC(=O)N1CCC[C@H]1C(=O)N[C@@H](CCC(=O)O)C(=O)N[C@@H](CO)C(=O)NCC(=O)N[C@@H](C)C(=O)N1CCC[C@H]1C(=O)N1CCC[C@H]1C(=O)N1CCC[C@H]1C(=O)N[C@@H](CO)C(=O)O)[C@@H](C)O)[C@@H](C)CC [SEQ ID NO 13, Tza-S-Q-G-T-F-T-S-D-F-S-K-Q-Nle-ESRRAQDFIEWLLATGPESGAPPPS-OH] (H-[Ala(4-thiazolyl)]SQGTFTSDFSKQ[Nle]ESRRAQDFIEWLLATGPESGAPPPS-OH; N-terminus assumed) | 3.1 | –
2 | CCCC[C@H](NC(=O)[C@H](CCC(N)=O)NC(=O)[C@H](CCCCN)NC(=O)[C@H](CO)NC(=O)[C@H](Cc1ccc(O)cc1)NC(=O)[C@H](CC(=O)O)NC(=O)[C@H](CO)NC(=O)[C@@H](NC(=O)[C@H](Cc1ccccc1)NC(=O)[C@@H](NC(=O)CNC(=O)[C@H](CCC(N)=O)NC(=O)[C@H](CO)NC(=O)[C@@H](N)Cc1cscn1)[C@@H](C)O)[C@@H](C)O)C(=O)N[C@@H](CCC(=O)O)C(=O)N[C@@H](CO)C(=O)N[C@@H](CCCNC(=N)N)C(=O)N[C@@H](CCCNC(=N)N)C(=O)N[C@@H](C)C(=O)N[C@@H](CCC(N)=O)C(=O)N[C@@H](CCC(=O)O)C(=O)N[C@@H](Cc1ccccc1)C(=O)N[C@H](C(=O)N[C@@H](CCC(=O)O)C(=O)N[C@@H](Cc1c[nH]c2ccccc12)C(=O)N[C@@H](CC(C)C)C(=O)N[C@@H](CC(C)C)C(=O)N[C@@H](C)C(=O)N[C@H](C(=O)NCC(=O)N1CCC[C@H]1C(=O)N[C@@H](CCC(=O)O)C(=O)N[C@@H](CO)C(=O)NCC(=O)N[C@@H](C)C(=O)N1CCC[C@H]1C(=O)N1CCC[C@H]1C(=O)N1CCC[C@H]1C(=O)N[C@@H](CO)C(=O)O)[C@@H](C)O)[C@@H](C)CC [SEQ ID NO 17, Tza-S-Q-G-T-F-T-S-D-Y-S-K-Q-Nle-ESRRAQEFIEWLLATGPESGAPPPS-OH] | 1 | –
3 | CCCC[C@H](NC(=O)[C@H](CCC(N)=O)NC(=O)[C@H](CCCCN)NC(=O)[C@H](CO)NC(=O)[C@H](Cc1ccccc1F)NC(=O)[C@H](CC(=O)O)NC(=O)[C@H](CO)NC(=O)[C@@H](NC(=O)[C@H](Cc1ccccc1)NC(=O)[C@@H](NC(=O)CNC(=O)[C@H](CCC(N)=O)NC(=O)[C@H](CO)NC(=O)[C@@H](N)Cc1cscn1)[C@@H](C)O)[C@@H](C)O)C(=O)N[C@@H](CCC(=O)O)C(=O)N[C@@H](CO)C(=O)N[C@@H](CCCNC(=N)N)C(=O)N[C@@H](CCCNC(=N)N)C(=O)N[C@@H](C)C(=O)N[C@@H](CCC(N)=O)C(=O)N[C@@H](CC(=O)O)C(=O)N[C@@H](Cc1ccccc1)C(=O)N[C@H](C(=O)N[C@@H](CCC(=O)O)C(=O)N[C@@H](Cc1c[nH]c2ccccc12)C(=O)N[C@@H](CC(C)C)C(=O)N[C@@H](CC(C)C)C(=O)N[C@@H](C)C(=O)N[C@H](C(=O)NCC(=O)N1CCC[C@H]1C(=O)N[C@@H](CCC(=O)O)C(=O)N[C@@H](CO)C(=O)NCC(=O)N[C@@H](C)C(=O)N1CCC[C@H]1C(=O)N1CCC[C@H]1C(=O)N1CCC[C@H]1C(=O)N[C@@H](CO)C(=O)O)[C@@H](C)O)[C@@H](C)CC [SEQ ID NO 18, Tza-S-Q-G-T-F-T-S-D-2FPhe-S-K-Q-Nle-ESRRAQDFIEWLLATGPESGAPPPS-OH] (H-[Ala(4-thiazolyl)]SQGTFTSD[Phe(2-F)]SKQ[Nle]ESRRAQDFIEWLLATGPESGAPPPS-OH) | 3.1 | –
4 | CC[C@H](C)[C@H](NC(=O)[C@H](Cc1ccccc1)NC(=O)[C@H](CC(=O)O)NC(=O)[C@H](CCC(N)=O)NC(=O)[C@H](C)NC(=O)[C@H](CCCNC(=N)N)NC(=O)[C@H](CCCNC(=N)N)NC(=O)[C@H](CO)NC(=O)[C@H](CCC(=O)O)NC(=O)[C@H](CC(C)C)NC(=O)[C@H](CCC(N)=O)NC(=O)[C@H](CCCCN)NC(=O)[C@H](CO)NC(=O)[C@H](Cc1cccc2ccccc12)NC(=O)[C@H](CC(=O)O)NC(=O)[C@H](CO)NC(=O)[C@@H](NC(=O)[C@H](Cc1ccccc1)NC(=O)[C@@H](NC(=O)CNC(=O)[C@H](CCC(N)=O)NC(=O)[C@H](CO)NC(=O)[C@@H](N)Cc1cscn1)[C@@H](C)O)[C@@H](C)O)C(=O)N[C@@H](CCC(=O)O)C(=O)N[C@@H](Cc1c[nH]c2ccccc12)C(=O)N[C@@H](CC(C)C)C(=O)N[C@@H](CC(C)C)C(=O)N[C@@H](C)C(=O)N[C@H](C(=O)NCC(=O)N1CCC[C@H]1C(=O)N[C@@H](CCC(=O)O)C(=O)N[C@@H](CO)C(=O)NCC(=O)N[C@@H](C)C(=O)N1CCC[C@H]1C(=O)N1CCC[C@H]1C(=O)N1CCC[C@H]1C(=O)N[C@@H](CO)C(=O)O)[C@@H](C)O [SEQ ID NO 22, Tza-S-Q-G-T-F-T-S-D-1Nal-SKQLESRRAQDFIEWLLATGPESGAPPPS-OH] (H-[Ala(4-thiazolyl)]SQGTFTSD[1Nal]SKQLESRRAQDFIEWLLATGPESGAPPPS-OH; N-terminus assumed) | 1 | –
5 | CC[C@H](C)[C@H](NC(=O)[C@H](Cc1ccccc1)NC(=O)[C@H](CCC(=O)O)NC(=O)[C@H](CCC(N)=O)NC(=O)[C@H](C)NC(=O)[C@H](CCCNC(=N)N)NC(=O)[C@H](CCCNC(=N)N)NC(=O)[C@H](CO)NC(=O)[C@H](CCC(=O)O)NC(=O)[C@H](CC(C)C)NC(=O)[C@H](CCC(N)=O)NC(=O)[C@H](CCCCN)NC(=O)[C@H](CO)NC(=O)[C@H](Cc1ccc(O)cc1)NC(=O)[C@H](CC(=O)O)NC(=O)[C@H](CO)NC(=O)[C@@H](NC(=O)[C@H](Cc1ccccc1)NC(=O)[C@@H](NC(=O)CNC(=O)[C@H](CCC(N)=O)NC(=O)[C@H](CO)NC(=O)[C@@H](N)Cc1c[nH]cn1)[C@@H](C)O)[C@@H](C)O)C(=O)N[C@@H](CCC(=O)O)C(=O)N[C@@H](Cc1c[nH]c2ccccc12)C(=O)N[C@@H](CC(C)C)C(=O)N[C@@H](CC(C)C)C(=O)N[C@@H](C)C(=O)NCC(=O)NCC(=O)N1CCC[C@H]1C(=O)N[C@@H](CCC(=O)O)C(=O)N[C@@H](CO)C(=O)NCC(=O)N[C@@H](C)C(=O)N1CCC[C@H]1C(=O)N1CCC[C@H]1C(=O)N1CCC[C@H]1C(=O)N[C@@H](CO)C(=O)O [SEQ ID NO 28, HSQGTFTSDYSKQLESRRAQEFIEWLLAGGPESGAPPPS-OH, reference compound] | – | 1
6 | CCCC[C@H](NC(=O)[C@H](CCC(N)=O)NC(=O)[C@H](CCCCN)NC(=O)[C@H](CO)NC(=O)[C@H](CC(C)C)NC(=O)[C@H](CC(=O)O)NC(=O)[C@H](CO)NC(=O)[C@@H](NC(=O)[C@H](Cc1ccccc1)NC(=O)[C@@H](NC(=O)CNC(=O)[C@H](CCC(N)=O)NC(=O)[C@H](CO)NC(=O)[C@@H](N)Cc1c[nH]cn1)[C@@H](C)O)[C@@H](C)O)C(=O)N[C@@H](CCC(=O)O)C(=O)N[C@@H](CO)C(=O)N[C@@H](CCCNC(=N)N)C(=O)N[C@@H](CCCNC(=N)N)C(=O)N[C@@H](C)C(=O)N[C@@H](CCC(N)=O)C(=O)N[C@@H](CCC(=O)O)C(=O)N[C@@H](Cc1ccccc1)C(=O)N[C@H](C(=O)N[C@@H](CCC(=O)O)C(=O)N[C@@H](Cc1c[nH]c2ccccc12)C(=O)N[C@@H](CC(C)C)C(=O)N[C@@H](CC(C)C)C(=O)N[C@@H](C)C(=O)N[C@H](C(=O)NCC(=O)N1CCC[C@H]1C(=O)N[C@@H](CCC(=O)O)C(=O)N[C@@H](CO)C(=O)NCC(=O)N[C@@H](C)C(=O)N1CCC[C@H]1C(=O)N1CCC[C@H]1C(=O)N1CCC[C@H]1C(=O)N[C@@H](CO)C(=O)O)[C@@H](C)O)[C@@H](C)CC [SEQ ID NO 36, H-S-Q-G-T-F-T-S-D-L-S-K-Q-Nle-ESRRAQEFIEWLLATGPESGAPPPS-OH, reference compound] (H-HSQGTFTSDLSKQ[Nle]ESRRAQEFIEWLLATGPESGAPPPS-OH) | – | 1.4
7 | H-HSQGTFTSDLSKQLESRRAQEFIEWLLATGPESGAPPPS-OH [SEQ ID NO 34, HSQGTFTSDLSKQLESRRAQEFIEWLLATGPESGAPPPS-OH, reference compound] | – | 1.4

Source: patent publication US9932381B2, “Exendin-4 derivatives as selective glucagon receptor agonists” (priority 2014, dated 2018)
